Measured values taken from patent US20180207294A1, “NON-ALCOHOLIC FATTY LIVER REGULATING FACTOR 14-3-3 PROTEIN” (Korea University Research and Business Foundation, priority 2015, published 2018).

Columns and labels:
PPARγ2 and 14-3-3β = target: T1, PPARγ2 and 14-3-3β (Homo sapiens, UniProt P37231); experiment: GST-pull down assay, PPARγ2 / 14-3-3β binding with oleic acid treatment (HEK-293T); settings: 200 μM oleic acid 72 hours; FIG. 8A
T1 construct: expressed in transfected cells; host or cells: HEK-293T
T1 sequence (P37231 1-505): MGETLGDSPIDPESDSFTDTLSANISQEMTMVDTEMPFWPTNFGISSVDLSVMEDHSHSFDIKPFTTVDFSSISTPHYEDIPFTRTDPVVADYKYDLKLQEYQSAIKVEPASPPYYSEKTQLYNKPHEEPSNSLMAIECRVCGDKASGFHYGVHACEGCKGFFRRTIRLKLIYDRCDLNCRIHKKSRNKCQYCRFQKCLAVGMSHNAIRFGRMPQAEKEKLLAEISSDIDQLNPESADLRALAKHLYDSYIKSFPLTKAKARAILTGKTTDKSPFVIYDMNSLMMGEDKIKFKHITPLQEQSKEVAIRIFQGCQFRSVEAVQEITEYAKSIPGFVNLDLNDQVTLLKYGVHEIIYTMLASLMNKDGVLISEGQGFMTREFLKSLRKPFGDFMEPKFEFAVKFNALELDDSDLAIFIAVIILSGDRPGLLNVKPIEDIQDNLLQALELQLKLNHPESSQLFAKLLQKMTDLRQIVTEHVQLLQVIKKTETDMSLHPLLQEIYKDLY
T1 sequence (P31946 1-246 partner): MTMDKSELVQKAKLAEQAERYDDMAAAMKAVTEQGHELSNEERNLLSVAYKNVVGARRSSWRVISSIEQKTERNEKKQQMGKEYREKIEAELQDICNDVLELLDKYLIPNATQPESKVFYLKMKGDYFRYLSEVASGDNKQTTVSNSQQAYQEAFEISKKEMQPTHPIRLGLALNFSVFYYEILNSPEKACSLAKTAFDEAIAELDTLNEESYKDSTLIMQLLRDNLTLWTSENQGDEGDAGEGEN
Protocol: (§1) HEK-293T cells were seeded in a 100 mm plate at a density of 2×10^6 cells per each well, and then transfected with mGST-PPARγ2DNA (4 μg) and HA-14-3-3β DNA (4 μg) or HA-14-3-3γ DNA (4 μg) using an E-fection plus reagent (Lugen). A ratio of DNA to the E-fection plus reagent was 1:2, and this method was performed according to a manufacturer's manual. After transfection, the cells were treated with 200 μM of oleic acid (OA) for 72 hours, washed with ice-cold PBS, and lysed with 500 μl/well of a lysis buffer (150 mM NaCl, 1 mM EDTA, 1% Nonidet P-40, 5% glycerol, 25 mM tris-HCl, pH 7.5, protease inhibitor added), the lysed cells were centrifuged at 10,000×g and 4° C. for 10 minutes to extract proteins, 1,000 μg of the proteins was reacted with 20 μl of glutathione Sepharose 4B beads (GE Healthcare, Buckinghamshire, UK) for 6 hours, washing of the beads with 1 ml of ice-cold PBS was repeated 5 times, the resulting beads were boiled at 100° C. for 10 minutes, and the proteins were separated on a 10% SDS-PAGE gel and identified using each of the antibodies (GST, HA: Santa Cruz) by western blotting, and all antibodies were used in a ratio of 1:3000.

PPARγ2 and 14-3-3γ = target: T2, PPARγ2 and 14-3-3γ (Homo sapiens, UniProt P37231); experiment: GST-pull down assay, PPARγ2 / 14-3-3γ binding with oleic acid treatment (HEK-293T); settings: 200 μM oleic acid 72 hours; FIG. 8B
T2 construct: expressed in transfected cells; host or cells: HEK-293T
T2 sequence (P37231 1-505): T1 sequence (P37231 1-505)
Protocol: as §1

[1] = system: primary mouse hepatocytes; experiment: mRNA expression (real-time PCR) after oleic acid treatment, primary mouse hepatocytes; format: cell-based; settings: oleic acid 72 hours
Excerpt: (§2) It is known that, in the liver of obese mice, the expression and activity of PPARγ2 are increased, and the expression of a target gene thereof is increased. To form such an obese environment in an in vitro experiment, mRNA expression amounts of PPARγ2, and 14-3-3β and 14-3-3γ were checked through treatment with oleic acid (OA), which is a type of fatty acid.
(§3) HepG2 cells and primary mouse hepatocytes were separately seeded in a 6-well plate at a density of 4x10^5 cells per each well, and then treated with 200 μM of oleic acid (OA) for 72 hours. For mRNA extraction, the corresponding cells were lysed with 1 ml/well of TRIzol (Invitrogen), 200 μl of chloroform was added thereto and mixed well, the resultant cells were maintained at room temperature for 5 minutes and then centrifuged at 12,000×g and 4° C. for 15 minutes, the obtained supernatant was mixed with 500 μl of isopropanol and then put on ice for 10 minutes, the resulting supernatant was centrifuged at 12,000×g and 4° C. for 15 minutes to remove a supernatant, and then pellets were dissolved with tertiary distilled water treated with diethyl pyrocarbonate (DEPC). 2 μg of mRNA was synthesized into cDNA using a Superscript First Strand cDNA Synthesis Kit (Bioneer, Daejeon, South Korea) and the synthesized cDNA as a template was amplified through polymerase chain reaction (PCR) using primers specific to PPARγ2, 14-3-3β, 14-3-3γ, SREBP-1c, SCD-1, ACC, FABP, FAT/CD36, and (β-actin of humans, and was amplified through real-time PCR using primers specific to PPARγ2, 14-3-3β, 14-3-3γ, SREBP-1c, FAT/CD36, and GAPDH of mice. β-actin and GAPDH were used as controls to see whether mRNAs of the respective cells were compared in the same amount.

HepG2 cells [2] = experiment: mRNA expression (PCR) after oleic acid treatment, HepG2 cells; format: cell-based, human; settings: oleic acid 72 hours
Excerpt: as §2, §3

HepG2 cells [3] = experiment: Oil Red-O lipid accumulation, HepG2 cells; format: cell-based; settings: concentration-dependent treatment of oleic acid, FIG. 9A
Protocol: (§4) HepG2 cells and primary mouse hepatocytes were separately seeded in a 6-well plate at a density of 4×10^5 cells per each well, and then transfected with GFP-14-3-3β DNA (1 μg) or GFP-14-3-3γ DNA (1 μg) and si-14-3-3β (10 μM, Santa Cruz) or si-14-3-3γ (10 μM, Santa Cruz) using an E-fection plus reagent (Lugen). A ratio of DNA to the E-fection plus reagent was 1:2, and this method was performed according to a manufacturer's manual. […] The stained cells were bleached with 1 ml of isopropanol and analyzed at a wavelength of 550 nm using a DU530 spectrophotometer (Beckman Instruments, Palo Alto, Calif.).

[4] = system: primary mouse hepatocytes; experiment: Triglyceride colorimetric assay, primary mouse hepatocytes; format: cell-based; settings: primary mouse hepatocytes treated with oleic acid (200 μM, 72 hours); FIG. 10A
Protocol: A triglyceride (neutral fat) is a type of fatty acid and is used as an index of a fat content. A biochemical lipid test was carried out by measuring an amount of triglycerides. HepG2 cells and primary mouse hepatocytes were separately seeded in a 6-well plate at a density of 4×10^5 cells per each well, and then transfected with GFP-14-3-3β DNA (1 μg) or GFP-14-3-3γ DNA (1 μg) and si-14-3-3β (10 μM, Santa Cruz) or si-14-3-3γ (10 μM, Santa Cruz) using an E-fection plus reagent (Lugen). A ratio of DNA to the E-fection plus reagent was 1:2, and this method was performed according to a manufacturer's manual. After transfection, the cells were treated with 200 μM of oleic acid (OA) for 72 hours, and the amount of triglycerides was measured using a triglyceride colorimetric assay kit (Cayman Chemical). The corresponding cells were washed with ice-cold PBS and then scraped using a standard diluent assay reagent, the scrapping process was repeated using a sonicator 20 times to lyse the cells, and the lysed cells were reacted with an enzyme buffer solution for 15 minutes, followed by measurement using an ELISA reader (Bio-Rad Laboratories, Inc) at a wavelength of 550 nm.

[5] = system: primary mouse hepatocytes; experiment: Oil Red-O lipid accumulation, primary mouse hepatocytes; format: cell-based; settings: concentration-dependent treatment of oleic acid, FIG. 9A
Protocol: as §4

CCCCCCCC/C=C\CCCCCCCC(=O)O [oleic acid] was tested, and the “binding between PPARγ2 and 14-3-3β” value (PPARγ2 and 14-3-3β) was “increased”, the “binding between PPARγ2 and 14-3-3γ” value (PPARγ2 and 14-3-3γ) was “reduced” and the “mRNA expression amount of 14-3-3β” value ([1]; FIG. 6B) was “no changes”. The “mRNA expression amount of 14-3-3γ” value ([1]; FIG. 6B) was “no changes”, the “mRNA expression of PPARγ2” value ([1]; FIG. 6B) was “increased in an oleic acid concentration-dependent manner” and the “mRNA expression of lipid metabolism-associated genes (PPARγ2 target genes)” value ([1]; FIG. 6D) was “also increased in an oleic acid concentration-dependent manner”. The “mRNA expression amount of 14-3-3β” value (HepG2 cells [2]; FIG. 6A) was “no changes”, the “mRNA expression amount of 14-3-3γ” value (HepG2 cells [2]; FIG. 6A) was “no changes” and the “mRNA expression of PPARγ2” value (HepG2 cells [2]; FIG. 6A) was “increased in an oleic acid concentration-dependent manner”. For the same compound, the “mRNA expression of lipid metabolism-associated genes (PPARγ2 target genes)” value (HepG2 cells [2]; FIG. 6C) was “also increased in an oleic acid concentration-dependent manner”, the “lipid accumulation (Oil Red-O)” value (HepG2 cells [3]) was “lipid accumulation was increased” and the triglyceride accumulation [4] was “triglyceride accumulation was increased”. The “lipid accumulation (Oil Red-O)” value [5] was “lipid accumulation was increased”.
